Data: publication doi:10.1101/2024.08.19.608619, “Discovery of potent SARS-CoV-2 nsp3 macrodomain inhibitors uncovers lack of translation to cellular antiviral response” (bioRxiv, 2024)
Converted amounts (≈) assume the structure as drawn.

assay: Hepatic microsomal stability, HLM; format: in vitro ADME, human; settings: In vitro human liver microsomal stability

Row | SMILES | clint [µL/min/mg] | perc_remaining [%] | t_half [min]
1 | CC(C)[C@H](Nc1ncnc2[nH]c(-c3cnn(CC(N)=O)c3)cc12)c1ccc2c(c1)NC(=O)CO2 (racemic) [ASAP-0008621] | 17.0 | 73.0 | 99.2
2 | CNC(=O)c1c[nH]c2ncnc(N[C@H](c3ccc4c(c3)NC(=O)CO4)C(C)C)c12 (racemic) [ASAP-0008637] | 86.0 | 23.0 | 19.5
3 | CNC(=O)c1c[nH]c2ncnc(N[C@H](c3ccc4c(c3)S(=O)(=O)CCC4)C(C)C)c12 (racemic) [ASAP-0008641] | 131.0 | 11.0 | 12.8
4 | CC(C)[C@H](Nc1ncnc2[nH]cc(C(=O)NC3CC3)c12)c1ccc2c(c1)S(=O)(=O)CCC2 (racemic) [ASAP-0008647] | 29.0 | 57.0 | 57.0
5 | CC(C)(C)[C@H](Nc1ncnc2[nH]c(-c3cnn(CC(N)=O)c3)cc12)c1ccc2c(n1)OCCO2 (racemic) [ASAP-0008648] | 36.0 | 55.0 | 46.0
6 | COCCNC(=O)c1c[nH]c2ncnc(N[C@H](c3ccc4c(c3)S(=O)(=O)CCC4)C(C)C)c12 (racemic) [ASAP-0008650] | 540.0 | 0.0 | 3.1
7 | CC(C)[C@H](Nc1ncnc2[nH]c(-c3cnn(CC(N)=O)c3)cc12)c1ccc2c(c1)S(=O)(=O)CCC2 (racemic) [ASAP-0008679] | 116.0 | 15.0 | 14.4
8 | CCNC(=O)c1cc2c(N[C@H](c3ccc4c(c3)S(=O)(=O)CCC4)C(C)C)ncnc2[nH]1 (racemic) [ASAP-0008711] | 108.0 | 15.0 | 15.4

same assay, conditions: In vitro human liver microsomal stability; no cofactor

Row | SMILES | perc_remaining_no_cofactor [%]
9 | CC(C)[C@H](Nc1ncnc2[nH]c(-c3cnn(CC(N)=O)c3)cc12)c1ccc2c(c1)NC(=O)CO2 (racemic) [ASAP-0008621] | 91.0
10 | CNC(=O)c1c[nH]c2ncnc(N[C@H](c3ccc4c(c3)NC(=O)CO4)C(C)C)c12 (racemic) [ASAP-0008637] | 98.0
11 | CNC(=O)c1c[nH]c2ncnc(N[C@H](c3ccc4c(c3)S(=O)(=O)CCC4)C(C)C)c12 (racemic) [ASAP-0008641] | 104.0
12 | CC(C)[C@H](Nc1ncnc2[nH]cc(C(=O)NC3CC3)c12)c1ccc2c(c1)S(=O)(=O)CCC2 (racemic) [ASAP-0008647] | 90.0
13 | CC(C)(C)[C@H](Nc1ncnc2[nH]c(-c3cnn(CC(N)=O)c3)cc12)c1ccc2c(n1)OCCO2 (racemic) [ASAP-0008648] | 96.0
14 | COCCNC(=O)c1c[nH]c2ncnc(N[C@H](c3ccc4c(c3)S(=O)(=O)CCC4)C(C)C)c12 (racemic) [ASAP-0008650] | 106.0
15 | CC(C)[C@H](Nc1ncnc2[nH]c(-c3cnn(CC(N)=O)c3)cc12)c1ccc2c(c1)S(=O)(=O)CCC2 (racemic) [ASAP-0008679] | 95.0
16 | CCNC(=O)c1cc2c(N[C@H](c3ccc4c(c3)S(=O)(=O)CCC4)C(C)C)ncnc2[nH]1 (racemic) [ASAP-0008711] | 98.0

assay: Hepatic microsomal stability, MLM; format: in vitro ADME; settings: In vitro mouse liver microsomal stability

Row | SMILES | clint [µL/min/mg] | perc_remaining [%] | t_half [min]
17 | CC(C)[C@H](Nc1ncnc2[nH]c(-c3cnn(CC(N)=O)c3)cc12)c1ccc2c(c1)NC(=O)CO2 (racemic) [ASAP-0008621] | 11.0 | 84.0 | 155.8
18 | CNC(=O)c1c[nH]c2ncnc(N[C@H](c3ccc4c(c3)NC(=O)CO4)C(C)C)c12 (racemic) [ASAP-0008637] | 113.0 | 16.0 | 14.8
19 | CNC(=O)c1c[nH]c2ncnc(N[C@H](c3ccc4c(c3)S(=O)(=O)CCC4)C(C)C)c12 (racemic) [ASAP-0008641] | 192.0 | 3.0 | 8.7
20 | CC(C)[C@H](Nc1ncnc2[nH]cc(C(=O)NC3CC3)c12)c1ccc2c(c1)S(=O)(=O)CCC2 (racemic) [ASAP-0008647] | 234.0 | 2.0 | 7.2
21 | CC(C)(C)[C@H](Nc1ncnc2[nH]c(-c3cnn(CC(N)=O)c3)cc12)c1ccc2c(n1)OCCO2 (racemic) [ASAP-0008648] | 31.0 | 60.0 | 53.1
22 | COCCNC(=O)c1c[nH]c2ncnc(N[C@H](c3ccc4c(c3)S(=O)(=O)CCC4)C(C)C)c12 (racemic) [ASAP-0008650] | 888.0 | 0.0 | 1.9
23 | CC(C)[C@H](Nc1ncnc2[nH]c(-c3cnn(CC(N)=O)c3)cc12)c1ccc2c(c1)S(=O)(=O)CCC2 (racemic) [ASAP-0008679] | 61.0 | 37.0 | 27.4
24 | CCNC(=O)c1cc2c(N[C@H](c3ccc4c(c3)S(=O)(=O)CCC4)C(C)C)ncnc2[nH]1 (racemic) [ASAP-0008711] | 85.0 | 21.0 | 19.5

same assay, conditions: In vitro mouse liver microsomal stability, no cofactor

Row | SMILES | perc_remaining_no_cofactor [%]
25 | CC(C)[C@H](Nc1ncnc2[nH]c(-c3cnn(CC(N)=O)c3)cc12)c1ccc2c(c1)NC(=O)CO2 (racemic) [ASAP-0008621] | 102.0
26 | CNC(=O)c1c[nH]c2ncnc(N[C@H](c3ccc4c(c3)NC(=O)CO4)C(C)C)c12 (racemic) [ASAP-0008637] | 95.0
27 | CNC(=O)c1c[nH]c2ncnc(N[C@H](c3ccc4c(c3)S(=O)(=O)CCC4)C(C)C)c12 (racemic) [ASAP-0008641] | 92.0
28 | CC(C)[C@H](Nc1ncnc2[nH]cc(C(=O)NC3CC3)c12)c1ccc2c(c1)S(=O)(=O)CCC2 (racemic) [ASAP-0008647] | 101.0
29 | CC(C)(C)[C@H](Nc1ncnc2[nH]c(-c3cnn(CC(N)=O)c3)cc12)c1ccc2c(n1)OCCO2 (racemic) [ASAP-0008648] | 90.0
30 | COCCNC(=O)c1c[nH]c2ncnc(N[C@H](c3ccc4c(c3)S(=O)(=O)CCC4)C(C)C)c12 (racemic) [ASAP-0008650] | 99.0

same assay, conditions: In vitro mouse liver microsomal stability; no cofactor

Row | SMILES | perc_remaining_no_cofactor [%]
31 | CC(C)[C@H](Nc1ncnc2[nH]c(-c3cnn(CC(N)=O)c3)cc12)c1ccc2c(c1)S(=O)(=O)CCC2 (racemic) [ASAP-0008679] | 109.0
32 | CCNC(=O)c1cc2c(N[C@H](c3ccc4c(c3)S(=O)(=O)CCC4)C(C)C)ncnc2[nH]1 (racemic) [ASAP-0008711] | 95.0

assay: LogD; settings: pH 7.4; In vitro LogD

Row | SMILES | logd
33 | CC(C)[C@H](Nc1ncnc2[nH]c(-c3cnn(CC(N)=O)c3)cc12)c1ccc2c(c1)NC(=O)CO2 (racemic) [ASAP-0008621] | 2.5
34 | CNC(=O)c1c[nH]c2ncnc(N[C@H](c3ccc4c(c3)NC(=O)CO4)C(C)C)c12 (racemic) [ASAP-0008637] | 3.2
35 | CNC(=O)c1c[nH]c2ncnc(N[C@H](c3ccc4c(c3)S(=O)(=O)CCC4)C(C)C)c12 (racemic) [ASAP-0008641] | 2.5
36 | CC(C)[C@H](Nc1ncnc2[nH]cc(C(=O)NC3CC3)c12)c1ccc2c(c1)S(=O)(=O)CCC2 (racemic) [ASAP-0008647] | 3.1
37 | CC(C)(C)[C@H](Nc1ncnc2[nH]c(-c3cnn(CC(N)=O)c3)cc12)c1ccc2c(n1)OCCO2 (racemic) [ASAP-0008648] | 2.7
38 | COCCNC(=O)c1c[nH]c2ncnc(N[C@H](c3ccc4c(c3)S(=O)(=O)CCC4)C(C)C)c12 (racemic) [ASAP-0008650] | 2.8
39 | CC(C)[C@H](Nc1ncnc2[nH]c(-c3cnn(CC(N)=O)c3)cc12)c1ccc2c(c1)S(=O)(=O)CCC2 (racemic) [ASAP-0008679] | 1.9
40 | CCNC(=O)c1cc2c(N[C@H](c3ccc4c(c3)S(=O)(=O)CCC4)C(C)C)ncnc2[nH]1 (racemic) [ASAP-0008711] | 2.8

assay: In vitro kinetic solubility; settings: In vitro kinetic solubility, ph 7.4

Row | SMILES | solubility_mean [µM]
41 | CC(C)[C@H](Nc1ncnc2[nH]c(-c3cnn(CC(N)=O)c3)cc12)c1ccc2c(c1)NC(=O)CO2 (racemic) [ASAP-0008621] | 25 (≈ 11.5 µg/mL)
42 | CNC(=O)c1c[nH]c2ncnc(N[C@H](c3ccc4c(c3)NC(=O)CO4)C(C)C)c12 (racemic) [ASAP-0008637] | 28 (≈ 11 µg/mL)
43 | CNC(=O)c1c[nH]c2ncnc(N[C@H](c3ccc4c(c3)S(=O)(=O)CCC4)C(C)C)c12 (racemic) [ASAP-0008641] | 390 (≈ 167 µg/mL)
44 | CC(C)[C@H](Nc1ncnc2[nH]cc(C(=O)NC3CC3)c12)c1ccc2c(c1)S(=O)(=O)CCC2 (racemic) [ASAP-0008647] | 257 (≈ 117 µg/mL)
45 | CC(C)(C)[C@H](Nc1ncnc2[nH]c(-c3cnn(CC(N)=O)c3)cc12)c1ccc2c(n1)OCCO2 (racemic) [ASAP-0008648] | 48 (≈ 22.2 µg/mL)
46 | COCCNC(=O)c1c[nH]c2ncnc(N[C@H](c3ccc4c(c3)S(=O)(=O)CCC4)C(C)C)c12 (racemic) [ASAP-0008650] | 378 (≈ 178 µg/mL)
47 | CC(C)[C@H](Nc1ncnc2[nH]c(-c3cnn(CC(N)=O)c3)cc12)c1ccc2c(c1)S(=O)(=O)CCC2 (racemic) [ASAP-0008679] | 341 (≈ 168 µg/mL)
48 | CCNC(=O)c1cc2c(N[C@H](c3ccc4c(c3)S(=O)(=O)CCC4)C(C)C)ncnc2[nH]1 (racemic) [ASAP-0008711] | 336 (≈ 148 µg/mL)

assay: Permeability Papp (AB) MDR1/MDCKII; settings: In vitro MDR1-MDCKII permeability, A to B, mean

Row | SMILES | papp_a_to_b_mean [×10⁻⁶ cm/s]
49 | CC(C)[C@H](Nc1ncnc2[nH]c(-c3cnn(CC(N)=O)c3)cc12)c1ccc2c(c1)NC(=O)CO2 (racemic) [ASAP-0008621] | 1.36
50 | CNC(=O)c1c[nH]c2ncnc(N[C@H](c3ccc4c(c3)NC(=O)CO4)C(C)C)c12 (racemic) [ASAP-0008637] | 4.26
51 | CNC(=O)c1c[nH]c2ncnc(N[C@H](c3ccc4c(c3)S(=O)(=O)CCC4)C(C)C)c12 (racemic) [ASAP-0008641] | 2.23
52 | CC(C)[C@H](Nc1ncnc2[nH]cc(C(=O)NC3CC3)c12)c1ccc2c(c1)S(=O)(=O)CCC2 (racemic) [ASAP-0008647] | 2.46
53 | CC(C)(C)[C@H](Nc1ncnc2[nH]c(-c3cnn(CC(N)=O)c3)cc12)c1ccc2c(n1)OCCO2 (racemic) [ASAP-0008648] | 0.822
54 | COCCNC(=O)c1c[nH]c2ncnc(N[C@H](c3ccc4c(c3)S(=O)(=O)CCC4)C(C)C)c12 (racemic) [ASAP-0008650] | 1.62
55 | CC(C)[C@H](Nc1ncnc2[nH]c(-c3cnn(CC(N)=O)c3)cc12)c1ccc2c(c1)S(=O)(=O)CCC2 (racemic) [ASAP-0008679] | 0.32
56 | CCNC(=O)c1cc2c(N[C@H](c3ccc4c(c3)S(=O)(=O)CCC4)C(C)C)ncnc2[nH]1 (racemic) [ASAP-0008711] | 0.7

same assay, conditions: In vitro MDR1-MDCKII permeability, recovery A to B, mean

Row | SMILES | perc_recovery_a_to_b_mean [%]
57 | CC(C)[C@H](Nc1ncnc2[nH]c(-c3cnn(CC(N)=O)c3)cc12)c1ccc2c(c1)NC(=O)CO2 (racemic) [ASAP-0008621] | 98.0
58 | CNC(=O)c1c[nH]c2ncnc(N[C@H](c3ccc4c(c3)NC(=O)CO4)C(C)C)c12 (racemic) [ASAP-0008637] | 97.4
59 | CNC(=O)c1c[nH]c2ncnc(N[C@H](c3ccc4c(c3)S(=O)(=O)CCC4)C(C)C)c12 (racemic) [ASAP-0008641] | 79.1
60 | CC(C)[C@H](Nc1ncnc2[nH]cc(C(=O)NC3CC3)c12)c1ccc2c(c1)S(=O)(=O)CCC2 (racemic) [ASAP-0008647] | 73.4
61 | CC(C)(C)[C@H](Nc1ncnc2[nH]c(-c3cnn(CC(N)=O)c3)cc12)c1ccc2c(n1)OCCO2 (racemic) [ASAP-0008648] | 88.8
62 | COCCNC(=O)c1c[nH]c2ncnc(N[C@H](c3ccc4c(c3)S(=O)(=O)CCC4)C(C)C)c12 (racemic) [ASAP-0008650] | 73.3
63 | CC(C)[C@H](Nc1ncnc2[nH]c(-c3cnn(CC(N)=O)c3)cc12)c1ccc2c(c1)S(=O)(=O)CCC2 (racemic) [ASAP-0008679] | 79.9
64 | CCNC(=O)c1cc2c(N[C@H](c3ccc4c(c3)S(=O)(=O)CCC4)C(C)C)ncnc2[nH]1 (racemic) [ASAP-0008711] | 87.2
